Experimental findings from ChEMBL document CHEMBL1147027, “The role of fluorine substitution in the structure-activity relationships (SAR) of classical cannabinoids” (2007) are described below.

In assay [1] the test system is Mus musculus. The experiment in a line: Effect on behavioral activity in intrathecally dosed mouse assessed as tail flick by tetrad test. In kind it is functional.
Assay [2] concerns Mus musculus. The assay is described as follows: Effect on behavioral activity in mouse assessed as tail flick by tetrad test at 30 mg/kg. In kind it is functional.
The target in assay [3] is Cannabinoid receptor 2 (Homo sapiens) (UniProt P34972). The experiment in a line: Binding affinity to CB2 receptor.
Chain of Cannabinoid receptor 2 (Homo sapiens) (P34972 whole entry): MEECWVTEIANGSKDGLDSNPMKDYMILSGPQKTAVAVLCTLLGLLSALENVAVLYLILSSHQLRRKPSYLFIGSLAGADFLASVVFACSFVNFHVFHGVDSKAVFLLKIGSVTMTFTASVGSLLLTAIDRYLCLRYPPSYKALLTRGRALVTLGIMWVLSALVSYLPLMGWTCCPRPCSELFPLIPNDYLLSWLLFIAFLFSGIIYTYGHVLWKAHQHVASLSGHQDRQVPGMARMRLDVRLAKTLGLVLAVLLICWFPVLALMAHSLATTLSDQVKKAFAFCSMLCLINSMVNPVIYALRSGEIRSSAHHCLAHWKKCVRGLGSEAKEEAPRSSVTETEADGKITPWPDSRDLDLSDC
For assay [4], the target named is Cannabinoid receptor 1 (Homo sapiens) (UniProt P21554). The assay is described as follows: Binding affinity to CB1 receptor.
Chain of Cannabinoid receptor 1 (Homo sapiens) (P21554 whole entry): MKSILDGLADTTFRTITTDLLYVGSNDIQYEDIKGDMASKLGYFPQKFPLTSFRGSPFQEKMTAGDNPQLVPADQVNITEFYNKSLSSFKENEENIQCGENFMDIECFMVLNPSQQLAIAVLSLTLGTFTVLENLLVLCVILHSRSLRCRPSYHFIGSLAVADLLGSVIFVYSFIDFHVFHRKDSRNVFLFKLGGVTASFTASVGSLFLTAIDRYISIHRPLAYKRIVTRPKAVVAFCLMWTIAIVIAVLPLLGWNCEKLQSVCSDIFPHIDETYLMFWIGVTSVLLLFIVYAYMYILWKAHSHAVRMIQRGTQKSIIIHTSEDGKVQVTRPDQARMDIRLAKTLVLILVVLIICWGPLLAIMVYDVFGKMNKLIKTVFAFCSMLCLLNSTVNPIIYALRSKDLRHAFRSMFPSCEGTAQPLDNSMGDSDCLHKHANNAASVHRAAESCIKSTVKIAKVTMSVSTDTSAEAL
The test system of assay [5] is Mus musculus. The experiment in a line: Effect on behavioral activity in mouse assessed as rectal temperature by tetrad test at 30 mg/kg. The class given is functional.
Assay [6] deals with Mus musculus. The experiment in a line: Effect on behavioral activity in mouse assessed as spontaneous activity by tetrad test at 30 mg/kg. In kind it is functional.
The species entered for assay [7] is Mus musculus. The experiment in a line: Effect on behavioral activity in mouse assessed as tail flick by tetrad test. The class given is functional.
For assay [8], the species on record is Mus musculus. The assay is described as follows: Effect on behavioral activity in mouse assessed as spontaneous activity by tetrad test. The class given is functional.
The test system of assay [9] is Mus musculus. The assay is described as follows: Effect on behavioral activity in intrathecally dosed mouse assessed as tail flick by tetrad test at 100 mg/kg. The class given is functional.
The species named for assay [10] is Mus musculus. The experiment in a line: Effect on behavioral activity in mouse assessed as rectal temperature by tetrad test. The class given is functional.

Turning to `CCCCCC#Cc1cc(F)c2c(c1)OC(C)(C)[C@@H]1CC=C(C)C[C@@H]21`, the Activity is 156.9 µg with Mus musculus [1]; 4% in the assay with Mus musculus [2]; above 4550 nM in assay [3]; above 10000 nM in assay [4]; -2.2 °C in the assay on Mus musculus [5]; 8% in the assay with Mus musculus [6].

For `CCCCCCCc1cc(F)c2c(c1)OC(C)(C)[C@@H]1CC=C(C)C[C@@H]21`, the values for the ED50 in the assay listed under Mus musculus [7], in the assay filed under Mus musculus [8] and in the assay filed under Mus musculus [10] were 21.5 mg/kg, 31.1 mg/kg and 6.9 mg/kg, respectively. In addition, the Activity came to 1510 nM in assay [3], 36% with Mus musculus [9] and 1560 nM in [4].

With `CCCCCc1cc(O)c2c(c1)OC(C)(C)[C@@H]1CCC(C)=C[C@@H]21` [DRONABINOL], the ED50 in the assay listed under Mus musculus [7] was determined as 1.4 mg/kg; in the assay listed under Mus musculus [8], 1 mg/kg; in the assay listed under Mus musculus [10], 1.4 mg/kg. Also, the Activity in the assay on Mus musculus [1] stood at 29 µg.

As to `CCCCCC#Cc1cc(O)c2c(c1)OC(C)(C)[C@@H]1CC=C(C)C[C@@H]21`, the ED50 in the assay listed under Mus musculus [7] was determined as 3.24 mg/kg; in the assay filed under Mus musculus [8], 3.68 mg/kg; in the assay filed under Mus musculus [10] it was 2.96 mg/kg. In assay [4], this molecule displayed an Activity of 36 nM.

As for `CCCCC/C=C/c1cc(F)c2c(c1)OC(C)(C)[C@@H]1CC=C(C)C[C@@H]21`, the Activity in assay [3] was determined as 40 nM; in assay [4] it was 285 nM.

As to `CCCCC/C=C/c1cc(O)c2c(c1)OC(C)(C)[C@@H]1CC=C(C)C[C@@H]21`, the ED50 in the assay listed under Mus musculus [7] was found to be 0.09 mg/kg; in the assay listed under Mus musculus [8], 0.09 mg/kg; in the assay listed under Mus musculus [10], 0.13 mg/kg. In addition, the Activity in assay [4] turned out to be 0.86 nM.
